Laboratory results as given in ChEMBL document CHEMBL1201862, “PubChem BioAssay data set” (2004).
Calls of active or inactive are those of the source.

What was measured:
[1] = biological target: Alkaline phosphatase, placental type (Homo sapiens, UniProt P05187); experiment: PLAP enzyme inhibitors, confirmation, biochemical, luminescence (AID 1512); format: functional
[2] = biological target: Glyceraldehyde-3-phosphate dehydrogenase (Homo sapiens, UniProt P04406)
[3] = biological target: T1, Alkaline phosphatase, tissue-nonspecific isozyme (Homo sapiens, UniProt P05186); experiment: human TNAP enzyme inhibitors, SAR follow-up, biochemical, luminescent, dose response (AID 1056)
T1 sequence (P05186 whole entry): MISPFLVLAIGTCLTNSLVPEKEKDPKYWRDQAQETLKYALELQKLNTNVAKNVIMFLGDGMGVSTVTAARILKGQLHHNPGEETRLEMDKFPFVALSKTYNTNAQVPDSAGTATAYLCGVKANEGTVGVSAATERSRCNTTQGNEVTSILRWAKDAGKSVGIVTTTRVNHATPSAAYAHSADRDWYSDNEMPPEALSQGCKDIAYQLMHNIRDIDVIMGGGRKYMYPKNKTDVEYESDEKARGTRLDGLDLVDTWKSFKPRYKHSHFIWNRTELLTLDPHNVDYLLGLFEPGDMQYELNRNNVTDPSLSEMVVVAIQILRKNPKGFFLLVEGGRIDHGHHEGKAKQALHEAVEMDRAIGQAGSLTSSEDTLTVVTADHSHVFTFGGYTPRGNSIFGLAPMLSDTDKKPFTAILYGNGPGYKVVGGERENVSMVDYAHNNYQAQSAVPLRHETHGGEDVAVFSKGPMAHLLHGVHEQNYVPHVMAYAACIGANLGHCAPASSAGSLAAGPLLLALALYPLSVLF

Mucolipin-3 = biological target: T2, Mucolipin-3 (Homo sapiens, UniProt Q8TDD5); experiment: Fluorescence counterscreen assay for […] agonists: dose response cell-based high-throughput screening assay to identify agonists of the transient receptor potential channel ML3 (TRPML3). [Related pubchem assays: 1424, 1448 ]; format: functional
T2 sequence (Q8TDD5 whole entry): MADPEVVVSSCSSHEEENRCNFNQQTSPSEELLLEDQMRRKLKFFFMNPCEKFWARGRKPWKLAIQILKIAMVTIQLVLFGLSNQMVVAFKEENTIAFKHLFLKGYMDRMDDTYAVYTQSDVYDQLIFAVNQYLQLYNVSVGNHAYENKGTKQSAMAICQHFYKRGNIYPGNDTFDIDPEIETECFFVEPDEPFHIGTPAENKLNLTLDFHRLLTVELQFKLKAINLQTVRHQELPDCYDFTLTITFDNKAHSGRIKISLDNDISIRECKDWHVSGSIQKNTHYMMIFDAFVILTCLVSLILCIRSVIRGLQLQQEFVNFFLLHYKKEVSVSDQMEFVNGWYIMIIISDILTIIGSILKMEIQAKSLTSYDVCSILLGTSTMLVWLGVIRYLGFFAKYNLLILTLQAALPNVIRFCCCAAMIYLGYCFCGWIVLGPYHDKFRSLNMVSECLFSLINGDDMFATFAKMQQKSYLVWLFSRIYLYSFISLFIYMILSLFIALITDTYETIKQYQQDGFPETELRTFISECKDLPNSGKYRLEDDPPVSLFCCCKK

Ion channel NompC = Ion channel NompC (Danio rerio, UniProt Q7T1G6); experiment: Dose response cell-based high-throughput screening assay for agonists of the transient receptor potential channel N1 (TRPN1). [Related pubchem assays (depositor defined):AID1424, AID1448]; format: functional
[4] = biological target: Lysine-specific demethylase 4C (Homo sapiens, UniProt Q9H3R0); experiment: GASC-1 (JMJD2C) histone demethylase inhibitors, dose response, biochemical, DELFIA europium, cherry-picked samples (AID 488835); format: functional
[5] = biological target: Peroxisome proliferator-activated receptor gamma/Nuclear receptor coactivator 3 (Homo sapiens, UniProt P37231); experiment: (§1) TR-FRET dose response biochemical High Throughput Screening assay for agonists of the steroid receptor coactivator 3 (SRC-3) recruitment by the peroxisome proliferator-activated receptor gamma (PPAR gamma): non-selective agonists. [Related pubchem assays: 1301 (Confirmation screen.), 1048 (Primary screen.)]; format: functional
Sequence of Peroxisome proliferator-activated receptor gamma/Nuclear receptor coactivator 3 (P37231 whole entry): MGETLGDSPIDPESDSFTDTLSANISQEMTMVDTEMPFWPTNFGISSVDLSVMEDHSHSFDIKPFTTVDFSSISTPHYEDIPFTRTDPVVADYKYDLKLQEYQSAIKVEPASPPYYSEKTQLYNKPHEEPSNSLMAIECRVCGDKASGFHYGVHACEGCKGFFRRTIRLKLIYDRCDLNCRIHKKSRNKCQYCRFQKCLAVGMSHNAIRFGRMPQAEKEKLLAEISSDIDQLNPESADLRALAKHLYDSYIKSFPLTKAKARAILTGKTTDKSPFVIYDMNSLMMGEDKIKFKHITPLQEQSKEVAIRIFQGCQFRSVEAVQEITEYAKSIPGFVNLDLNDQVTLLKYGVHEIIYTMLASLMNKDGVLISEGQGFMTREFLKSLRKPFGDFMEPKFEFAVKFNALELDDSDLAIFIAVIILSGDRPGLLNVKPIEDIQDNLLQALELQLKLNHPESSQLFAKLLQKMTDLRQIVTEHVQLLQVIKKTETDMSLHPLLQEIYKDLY
Sequence of Peroxisome proliferator-activated receptor gamma/Nuclear receptor coactivator 3 (Q9Y6Q9 whole entry, further chain): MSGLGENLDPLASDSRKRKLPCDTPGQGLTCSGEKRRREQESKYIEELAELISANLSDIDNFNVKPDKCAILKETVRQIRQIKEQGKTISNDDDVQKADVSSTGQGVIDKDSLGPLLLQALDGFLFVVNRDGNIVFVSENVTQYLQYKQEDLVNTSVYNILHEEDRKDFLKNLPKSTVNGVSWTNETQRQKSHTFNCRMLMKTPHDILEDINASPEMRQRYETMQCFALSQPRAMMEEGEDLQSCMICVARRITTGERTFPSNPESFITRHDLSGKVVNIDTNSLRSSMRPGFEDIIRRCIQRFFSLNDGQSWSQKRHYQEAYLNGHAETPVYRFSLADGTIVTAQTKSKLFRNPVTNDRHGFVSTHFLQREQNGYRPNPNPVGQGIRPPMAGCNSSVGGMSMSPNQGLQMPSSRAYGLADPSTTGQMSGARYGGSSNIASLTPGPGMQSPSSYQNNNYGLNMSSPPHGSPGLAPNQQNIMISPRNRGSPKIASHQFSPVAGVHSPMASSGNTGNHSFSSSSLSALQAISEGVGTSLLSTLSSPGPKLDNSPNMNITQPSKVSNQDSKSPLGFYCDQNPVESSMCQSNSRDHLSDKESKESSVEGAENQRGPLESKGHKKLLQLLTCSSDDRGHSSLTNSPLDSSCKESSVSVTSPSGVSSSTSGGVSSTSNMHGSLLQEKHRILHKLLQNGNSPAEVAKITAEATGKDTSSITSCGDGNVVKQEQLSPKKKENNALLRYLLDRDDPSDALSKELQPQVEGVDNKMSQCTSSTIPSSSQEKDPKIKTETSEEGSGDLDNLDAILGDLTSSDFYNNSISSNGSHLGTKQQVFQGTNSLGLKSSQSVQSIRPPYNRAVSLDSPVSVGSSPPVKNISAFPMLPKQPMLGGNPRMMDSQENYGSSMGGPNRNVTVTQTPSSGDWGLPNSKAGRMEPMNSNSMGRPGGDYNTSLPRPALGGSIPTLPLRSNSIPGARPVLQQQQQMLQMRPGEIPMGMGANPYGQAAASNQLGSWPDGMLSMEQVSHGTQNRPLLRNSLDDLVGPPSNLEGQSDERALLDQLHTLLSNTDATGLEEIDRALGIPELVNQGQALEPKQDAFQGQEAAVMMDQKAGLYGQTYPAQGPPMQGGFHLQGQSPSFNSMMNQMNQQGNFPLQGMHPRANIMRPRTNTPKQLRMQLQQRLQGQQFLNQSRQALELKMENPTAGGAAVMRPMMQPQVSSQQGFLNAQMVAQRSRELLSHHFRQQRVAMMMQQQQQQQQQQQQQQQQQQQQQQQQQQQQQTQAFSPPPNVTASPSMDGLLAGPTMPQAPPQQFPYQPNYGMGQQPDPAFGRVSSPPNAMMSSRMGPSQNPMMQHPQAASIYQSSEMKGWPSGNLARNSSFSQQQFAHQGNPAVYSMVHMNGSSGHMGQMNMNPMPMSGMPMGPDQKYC

[6] = biological target: Peroxisome proliferator-activated receptor gamma/Nuclear receptor coactivator 1 (Homo sapiens, UniProt P37231); experiment: as §1, with “1 (SRC-1)” for “3 (SRC-3)”, “assays (depositor defined):AID1300, AID1808, AID504735, AID631]” for “assays: 1301 (Confirmation screen.), 1048 (Primary screen.)]”; format: protein assay
Sequence of Peroxisome proliferator-activated receptor gamma/Nuclear receptor coactivator 1 (P37231 whole entry): as the sequence (P37231 whole entry) above
Sequence of Peroxisome proliferator-activated receptor gamma/Nuclear receptor coactivator 1 (Q15788 whole entry, further chain): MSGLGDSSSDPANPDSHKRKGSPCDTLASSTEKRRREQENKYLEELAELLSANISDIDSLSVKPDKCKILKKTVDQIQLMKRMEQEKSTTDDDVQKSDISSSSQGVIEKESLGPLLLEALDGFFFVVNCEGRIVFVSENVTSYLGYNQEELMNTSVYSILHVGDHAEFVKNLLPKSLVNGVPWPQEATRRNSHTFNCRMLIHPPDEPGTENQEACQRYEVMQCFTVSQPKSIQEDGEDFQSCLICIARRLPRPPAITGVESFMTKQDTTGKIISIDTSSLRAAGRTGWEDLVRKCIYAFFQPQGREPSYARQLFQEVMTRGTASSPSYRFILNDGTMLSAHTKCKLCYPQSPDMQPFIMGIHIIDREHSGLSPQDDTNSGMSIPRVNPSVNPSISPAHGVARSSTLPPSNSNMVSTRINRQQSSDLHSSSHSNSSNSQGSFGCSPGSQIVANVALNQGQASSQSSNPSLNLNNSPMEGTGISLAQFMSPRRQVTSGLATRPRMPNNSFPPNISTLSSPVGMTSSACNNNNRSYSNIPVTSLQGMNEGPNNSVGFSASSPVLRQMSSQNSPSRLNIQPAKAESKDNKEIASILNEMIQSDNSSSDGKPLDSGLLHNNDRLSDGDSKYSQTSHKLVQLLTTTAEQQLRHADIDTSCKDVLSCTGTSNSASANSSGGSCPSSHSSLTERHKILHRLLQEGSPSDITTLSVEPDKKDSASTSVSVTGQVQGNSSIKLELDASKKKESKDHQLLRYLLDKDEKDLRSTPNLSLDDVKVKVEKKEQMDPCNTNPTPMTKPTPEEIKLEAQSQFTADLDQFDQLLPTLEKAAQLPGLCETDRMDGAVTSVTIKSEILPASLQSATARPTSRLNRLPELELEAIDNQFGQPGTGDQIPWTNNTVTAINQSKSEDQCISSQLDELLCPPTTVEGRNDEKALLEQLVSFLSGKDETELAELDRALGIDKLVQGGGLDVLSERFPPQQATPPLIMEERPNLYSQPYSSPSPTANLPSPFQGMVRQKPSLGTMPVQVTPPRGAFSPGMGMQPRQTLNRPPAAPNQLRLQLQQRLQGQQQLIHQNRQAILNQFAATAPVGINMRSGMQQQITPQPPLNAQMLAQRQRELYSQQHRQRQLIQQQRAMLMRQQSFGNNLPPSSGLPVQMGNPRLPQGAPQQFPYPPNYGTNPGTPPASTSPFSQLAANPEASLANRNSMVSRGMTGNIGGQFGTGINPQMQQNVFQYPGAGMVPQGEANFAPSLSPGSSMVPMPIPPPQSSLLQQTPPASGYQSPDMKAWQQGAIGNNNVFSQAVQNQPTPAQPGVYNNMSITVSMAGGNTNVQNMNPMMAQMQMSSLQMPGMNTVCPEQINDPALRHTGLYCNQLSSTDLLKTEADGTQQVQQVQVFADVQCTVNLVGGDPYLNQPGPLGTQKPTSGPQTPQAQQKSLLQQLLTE

[7] = biological target: Peroxisome proliferator-activated receptor gamma/Nuclear receptor coactivator 2 (Homo sapiens, UniProt P37231); experiment: TR-FRET dose response biochemical High Throughput Screening assay for agonists of the steroid receptor coactivator 2 (SRC-2) recruitment by the peroxisome proliferator-activated receptor gamma (PPAR gamma): non-selective agonists. [Related pubchem assays: 1297, 1032 ]; format: functional
[8] = biological target: Heat shock protein HSP 90-alpha (Homo sapiens, UniProt P07900); format: functional, organism-based
[9] = biological target: T3, Heat shock factor protein 1 (Mus musculus, UniProt P38532); experiment: HSF1 potentiators in luciferase reporter cells, confirmation, cell-based, NIH3T3, luminescence, dose retest (AID 435004); format: functional;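 note: stress induced by proteasome inhibitor MG132 added 30 min after compound; luciferase reporter driven by HSF1 response element in NIH3T3 cells; actives raise luminescence as potentiators of the MG132 stress response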
T3 sequence (P38532 whole entry): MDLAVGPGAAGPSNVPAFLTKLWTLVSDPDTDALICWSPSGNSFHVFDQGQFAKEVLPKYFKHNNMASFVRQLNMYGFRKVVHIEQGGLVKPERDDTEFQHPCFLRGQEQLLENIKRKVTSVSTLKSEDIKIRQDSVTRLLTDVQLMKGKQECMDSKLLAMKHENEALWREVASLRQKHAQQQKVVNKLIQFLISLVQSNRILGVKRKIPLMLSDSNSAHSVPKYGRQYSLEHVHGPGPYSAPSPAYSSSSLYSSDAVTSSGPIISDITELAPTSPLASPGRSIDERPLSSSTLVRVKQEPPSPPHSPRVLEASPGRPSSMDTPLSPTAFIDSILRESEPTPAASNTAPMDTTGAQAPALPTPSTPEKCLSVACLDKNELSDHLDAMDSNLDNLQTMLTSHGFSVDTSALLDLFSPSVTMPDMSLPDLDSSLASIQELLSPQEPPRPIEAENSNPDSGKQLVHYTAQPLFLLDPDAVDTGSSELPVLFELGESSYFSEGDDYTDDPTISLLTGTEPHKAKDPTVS

[10] = biological target: G-protein coupled receptor 55 (Homo sapiens, UniProt Q9Y2T6); experiment: GPR55 antagonists blocking LPI-driven arrestin recruitment, primary screen, imaging, U2OS, beta-arrestin-GFP, LPI agonist (AID 2013); format: functional;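 note: antagonist potency measured as reduced agonist-driven arrestin aggregation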
Sequence of G-protein coupled receptor 55 (Q9Y2T6 whole entry): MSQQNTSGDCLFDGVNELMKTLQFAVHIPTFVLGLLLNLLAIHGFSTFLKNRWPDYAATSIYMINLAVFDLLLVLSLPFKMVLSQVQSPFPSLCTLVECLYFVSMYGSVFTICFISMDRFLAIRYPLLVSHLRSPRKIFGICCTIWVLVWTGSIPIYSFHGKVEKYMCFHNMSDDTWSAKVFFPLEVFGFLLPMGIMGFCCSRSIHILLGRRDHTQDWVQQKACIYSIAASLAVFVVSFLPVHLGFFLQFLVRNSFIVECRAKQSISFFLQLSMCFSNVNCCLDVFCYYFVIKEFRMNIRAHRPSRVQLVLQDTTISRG

Sequence of Alkaline phosphatase, placental type (P05187 whole entry): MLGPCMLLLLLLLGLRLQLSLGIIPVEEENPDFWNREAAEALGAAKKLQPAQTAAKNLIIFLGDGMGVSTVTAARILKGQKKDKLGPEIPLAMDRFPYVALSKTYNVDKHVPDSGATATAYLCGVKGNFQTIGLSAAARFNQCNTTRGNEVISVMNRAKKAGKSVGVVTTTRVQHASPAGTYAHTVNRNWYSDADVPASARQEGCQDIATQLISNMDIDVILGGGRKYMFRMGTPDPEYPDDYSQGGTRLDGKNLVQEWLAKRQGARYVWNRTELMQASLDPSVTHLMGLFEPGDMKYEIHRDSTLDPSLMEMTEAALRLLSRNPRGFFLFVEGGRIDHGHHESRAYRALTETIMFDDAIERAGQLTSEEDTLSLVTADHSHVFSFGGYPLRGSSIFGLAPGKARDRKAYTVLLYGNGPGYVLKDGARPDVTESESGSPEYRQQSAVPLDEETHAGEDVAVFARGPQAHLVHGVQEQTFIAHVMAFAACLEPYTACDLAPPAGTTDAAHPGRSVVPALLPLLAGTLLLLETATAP
Sequence of Glyceraldehyde-3-phosphate dehydrogenase (P04406 whole entry): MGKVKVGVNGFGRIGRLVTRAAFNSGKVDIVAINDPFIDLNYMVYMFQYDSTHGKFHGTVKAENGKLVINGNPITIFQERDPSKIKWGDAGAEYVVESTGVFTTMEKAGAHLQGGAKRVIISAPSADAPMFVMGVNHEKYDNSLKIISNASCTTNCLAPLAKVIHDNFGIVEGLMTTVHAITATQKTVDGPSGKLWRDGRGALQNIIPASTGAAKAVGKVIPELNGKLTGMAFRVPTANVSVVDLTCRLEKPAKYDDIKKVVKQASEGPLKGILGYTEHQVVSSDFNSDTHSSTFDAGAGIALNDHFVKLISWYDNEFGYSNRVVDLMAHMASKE

COC(=O)c1cc(-c2cc(F)c(Cl)cc2Cl)n[nH]1
IC50 [1]: > 100 µM (inactive)
IC50 [2]: > 100 µM (not active)
IC50 [3]: 0.911 µM (active)

CCOC(=O)c1ccc(NC(=O)Nc2ccc(F)cc2)cc1
EC50 (Mucolipin-3): > 29.9 µM (not active)
EC50 (Ion channel NompC): > 9.97 µM (inactive)

CCOc1ccc(NC(=O)CSc2nnc(-c3ccccc3)n2N)cc1
AC50 [4]: 12.1 µM (active)

Cn1c(=O)cc(SCC(=O)N2CCC3(CC2)OCCO3)c2ccccc21
EC50 [5]: > 79.4 µM (not active)
EC50 [6]: > 79.4 µM (inactive)
EC50 [7]: > 79.4 µM (not active)

Brc1ccc(-c2nc3ccccc3s2)s1
EC50 [5]: 81.4 µM (not active)
EC50 [6]: 3.34 µM (active)
EC50 [7]: 3.18 µM (active)

Clc1ccccc1CN(Cc1ccco1)Cc1nnnn1C1CCCC1
AC50 [8]: 5.48 µM (active)
EC50 [9]: > 260 µM (inactive)
IC50 [10]: 4.16 µM (active)
